Results: patent US7858635B2 (priority 2005, dated 2010)
Read-outs that look alike come from different tables or passages of the source.

Assays:
[1] = biological target: T1, M1 muscarinic receptor (Homo sapiens, UniProt P11229); assay: Functional mobilization of intracellular calcium (FLIPR, Fluo-3), M1-CHO cells; type: cell-based; conditions: for Emax: 100% efficacy is the maximum response obtained with the Carbachol control, read-out: M1 Efficacy
T1 construct: expressed in transfected cells; host or cells: CHO cells (M1-CHO, under zeocin and G418 selection)
T1 sequence (P11229 1-460): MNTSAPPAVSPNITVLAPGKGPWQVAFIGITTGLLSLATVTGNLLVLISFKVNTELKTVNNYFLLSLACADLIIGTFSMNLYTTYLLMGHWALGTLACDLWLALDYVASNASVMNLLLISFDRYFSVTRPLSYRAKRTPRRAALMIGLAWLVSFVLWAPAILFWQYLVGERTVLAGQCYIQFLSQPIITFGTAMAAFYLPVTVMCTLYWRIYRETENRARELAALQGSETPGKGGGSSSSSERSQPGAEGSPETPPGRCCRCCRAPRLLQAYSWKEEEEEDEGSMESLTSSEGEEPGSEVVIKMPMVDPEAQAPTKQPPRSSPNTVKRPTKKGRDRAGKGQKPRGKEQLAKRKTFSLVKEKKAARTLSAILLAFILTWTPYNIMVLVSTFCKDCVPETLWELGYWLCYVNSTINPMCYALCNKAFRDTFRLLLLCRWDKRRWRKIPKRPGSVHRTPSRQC
Outline: (§1)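 Intracellular calcium was tracked by fluorescence (488/540 nm) over 60 sec after compound addition to dye-loaded CHO cells expressing the receptor. Inhibitory activity used a 15 min pre-incubation before carbachol at the subtype EC80.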

[2] = biological target: T2, M4 muscarinic receptor (Homo sapiens, UniProt P08173); assay: Functional mobilization of intracellular calcium (FLIPR, Fluo-3), M4-CHO cells; type: cell-based; conditions: for Emax: 100% efficacy is the maximum response obtained with the Carbachol control, read-out: M4 Efficacy
T2 construct: expressed in transfected cells; host or cells: CHO cells (M4-CHO, under puromycin, zeocin and blasticidin selection)
T2 sequence (P08173 1-479): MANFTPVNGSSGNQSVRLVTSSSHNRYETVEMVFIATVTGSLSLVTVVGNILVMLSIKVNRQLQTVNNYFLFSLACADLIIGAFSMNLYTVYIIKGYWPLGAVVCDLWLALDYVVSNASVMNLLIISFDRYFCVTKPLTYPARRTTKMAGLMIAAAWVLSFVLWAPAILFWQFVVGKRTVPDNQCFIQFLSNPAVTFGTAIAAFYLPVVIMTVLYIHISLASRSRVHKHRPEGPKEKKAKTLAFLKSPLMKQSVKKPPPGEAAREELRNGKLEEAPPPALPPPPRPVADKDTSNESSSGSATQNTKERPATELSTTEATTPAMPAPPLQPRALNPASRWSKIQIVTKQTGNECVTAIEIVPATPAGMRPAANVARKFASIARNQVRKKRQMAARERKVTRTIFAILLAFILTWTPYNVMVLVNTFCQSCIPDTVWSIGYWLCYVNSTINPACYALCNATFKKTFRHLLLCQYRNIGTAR
Outline: as §1

[3] = compound nos. 1-454, M1-CHO cells, calcium mobilization
[4] = compound nos. 1-454, M4-CHO cells, calcium mobilization

SMILES | M1 Activity ([1]; compound nos. 1-454) | Emax ([1]; compound nos. 1-454) [%] | M4 Activity ([2]; compound nos. 1-454) | Emax ([2]; compound nos. 1-454) [%] | M1 Activity [1, 3] | M4 Activity [2, 4] | Emax ([1]; compound nos. 455-509) [%] | M1 Activity ([1]; compounds 455-509) | Emax ([2]; compound nos. 455-509) [%] | M4 Activity ([2]; compounds 455-509)
CN(C)C(=O)N1CC2(CCN(C3CCN(c4cccc(F)c4)CC3)CC2)c2cc(F)ccc21 [compound 438] | ++ (activity was measured to be between 0.7 μM and 3.0 μM) | 65 to 85 | +++ (activity was measured to be less than or equal to 0.1 μM) | 55 to 70 |  |  |  |  |  | 
Clc1ccc2c(c1)C1(CCN(C3CCOCC3)CC1)CO2 [compound 257] |  | > 85 |  | < 55 | + (activity was measured to be greater than or equal to 3.0 μM) | + (activity was measured to be greater than or equal to 4.0 μM) |  |  |  | 
CCOC(=O)N1C2CCC1CC(N1CCC3(CC1)CN(C(=O)c1snnc1C)c1ccc(F)cc13)C2 (stereo not shown) [compound 59] |  | < 65 |  | 55 to 70 | +++ (activity was measured to be less than or equal to 0.7 μM) | ++ (activity was measured to be between 0.1 μM and 4.0 μM) |  |  |  | 
CCc1nsc(N2CCC(N3CCC4(CCN(C(C)=O)c5ccccc54)CC3)CC2)n1 [compound 489] |  |  |  |  |  |  | > 100 | +++ (activity was measured to be less than or equal to 2.0 μM) | 25 to 100 | ++ (activity was measured to be between 2.0 μM and 5.0 μM)
CC(C)C(=O)N(C)[C@H]1CC2(CCN(C[C@H]3C[C@H]4CC[C@H]3C4)CC2)c2ccccc21 [compound 246] |  | < 65 |  | > 70 | ++ (activity was measured to be between 0.7 μM and 3.0 μM) | ++ (activity was measured to be between 0.1 μM and 4.0 μM) |  |  |  | 
CCOC(=O)N1CCC(N2CCC3(CC2)CN(CCC(=O)CC)c2ccc(F)cc23)CC1 [compound 229] |  | < 65 |  | > 70 | ++ (activity was measured to be between 0.7 μM and 3.0 μM) | +++ (activity was measured to be less than or equal to 0.1 μM) |  |  |  | 
CCOC(=O)N1CCC(N2CCC3(CC2)CN(C(=O)OCCF)c2ccc(F)cc23)CC1 [compound 370] |  | 65 to 85 |  | > 70 | +++ (activity was measured to be less than or equal to 0.7 μM) | ++ (activity was measured to be between 0.1 μM and 4.0 μM) |  |  |  | 
CCOC(=O)N1CCC(N2CCC3(CC2)CN(C(=O)OC(C)C)c2ccc(F)cc23)CC1 [compound 145] |  | > 85 |  | > 70 | +++ (activity was measured to be less than or equal to 0.7 μM) | + (activity was measured to be greater than or equal to 4.0 μM) |  |  |  | 
CCCOC(=O)N1CCC(CN2CCC3(CC2)CN(C(C)=O)c2ccc(C)cc23)CC1 [compound 306] |  | < 65 |  | < 55 | + (activity was measured to be greater than or equal to 3.0 μM) | + (activity was measured to be greater than or equal to 4.0 μM) |  |  |  | 
CCCOC(=O)N1CCC(N2CCC3(CC2)CN(C(C)=O)c2ccc(F)cc23)CC1 [compound 79] |  | < 65 |  | < 55 | ++ (activity was measured to be between 0.7 μM and 3.0 μM) | + (activity was measured to be greater than or equal to 4.0 μM) |  |  |  | 
CC(=O)N1CC2(CCN(C3CCN(c4nc(C)ns4)CC3)CC2)c2ccccc21 [compound 482] |  |  |  |  |  |  | > 100 | +++ (activity was measured to be less than or equal to 2.0 μM) | 25 to 100 | ++ (activity was measured to be between 2.0 μM and 5.0 μM)
CCOC(=O)N1C2CCC1CC(N1CCC3(CC1)CN(S(=O)(=O)c1c(C)noc1C)c1ccc(F)cc13)C2 (stereo not shown) [compound 89] |  | 65 to 85 |  | < 55 | +++ (activity was measured to be less than or equal to 0.7 μM) | ++ (activity was measured to be between 0.1 μM and 4.0 μM) |  |  |  | 
CCOC(=O)N1CCC(N2CCC3(CC2)CN(C(C)=O)c2ccc(C4=CCCC4)cc23)CC1 [compound 426] | + (activity was measured to be greater than or equal to 3.0 μM) | < 65 | + (activity was measured to be greater than or equal to 4.0 μM) | < 55 |  |  |  |  |  | 
CC(=O)N1CCC2(CCN(C3CCN(c4cnccn4)CC3)CC2)c2ccccc21 [compound 463] |  |  |  |  |  |  | > 100 | +++ (activity was measured to be less than or equal to 2.0 μM) | 25 to 100 | ++ (activity was measured to be between 2.0 μM and 5.0 μM)
CCCOC(=O)N1CCC(N2CCC3(CC2)CN(C(=O)N(C)C)c2ccc(F)cc23)CC1 [compound 91] |  | 65 to 85 |  | < 55 | +++ (activity was measured to be less than or equal to 0.7 μM) | ++ (activity was measured to be between 0.1 μM and 4.0 μM) |  |  |  | 
Clc1ccc2c(c1)C1(CCN(C3CCC4CCC3C4)CC1)CN2 (stereo not shown) [compound 348] |  | > 85 |  | > 70 | +++ (activity was measured to be less than or equal to 0.7 μM) | ++ (activity was measured to be between 0.1 μM and 4.0 μM) |  |  |  | 
COC(=O)N1C2CCC1CC(N1CCC3(CC1)CN(C1CCN(c4nc(C)ns4)CC1)c1ccccc13)C2 (stereo not shown) [compound 490] |  |  |  |  |  |  | > 100 | ++ (activity was measured to be between 2.0 μM and 5.0 μM) | 25 to 100 | ++ (activity was measured to be between 2.0 μM and 5.0 μM)
CCOC(=O)N1CCC(N2CCC3(CC2)CN(C(=O)c2ccccc2)c2ccc(F)cc23)CC1 [compound 384] | ++ (activity was measured to be between 0.7 μM and 3.0 μM) | < 65 | + (activity was measured to be greater than or equal to 4.0 μM) | < 55 |  |  |  |  |  | 
CCOC(=O)N1CCC(N2CCC3(CC2)CN(C(=O)C2CCC2)c2ccc(F)cc23)CC1 [compound 254] |  | 65 to 85 |  | 55 to 70 | + (activity was measured to be greater than or equal to 3.0 μM) | + (activity was measured to be greater than or equal to 4.0 μM) |  |  |  | 
CCOC(=O)N1CCC(N2CCC3(CC2)CN(C(C)=O)c2ccc(OC)cc23)CC1 [compound 340] |  | < 65 |  | < 55 | ++ (activity was measured to be between 0.7 μM and 3.0 μM) | + (activity was measured to be greater than or equal to 4.0 μM) |  |  |  | 
CCCCOC(=O)N1CC2(CCN(C3CCN(C(=O)OCC)CC3)CC2)c2cc(F)ccc21 [compound 220] |  | 65 to 85 |  | < 55 | + (activity was measured to be greater than or equal to 3.0 μM) | + (activity was measured to be greater than or equal to 4.0 μM) |  |  |  | 
CN(C)C(=O)N1CC2(CCN(C3CCN(c4cnc(Br)cn4)CC3)CC2)c2ccccc21 [compound 509] |  |  |  |  |  |  | > 100 | ++ (activity was measured to be between 2.0 μM and 5.0 μM) | 25 to 100 | ++ (activity was measured to be between 2.0 μM and 5.0 μM)
